Experimental data: patent US20230242582A1, “NOVEL ALPHA-HELICAL DOUBLE-SIDED CELL PENETRATING PEPTIDE AND USE THEREOF” (CAMP THERAPEUTICS INC., priority 2020, published 2023)
pIC50: −log10 of the molar value. Read-outs that look alike come from different tables or passages of the source. Positions of bridges follow the written chain, without caps; N, C: chain ends. Non-standard residues stand in square brackets, D forms with d. Residues, ends and D or L forms follow the SMILES beside them. Chains are numbered I, II in the order given. tBuAla = CC(C)(C)C[C@H](N)C(=O)O; hCys = N[C@@H](CCS)C(=O)O

Experiments:
HeLa cells [1] = test: Cytotoxicity of dimeric peptides, WST-1 assay; assay type: cell-based, human; details: for ratio: IC50 relative to LK-3, HeLa cells
Experimental: Cytotoxicity was identified using WST-1 assay by treating HeLa cells with peptides in a 96-well plate (1×10^4 cells/well) for 24 hours.
(§1) Specifically, HeLa cells were cultured in DMEM at a condition of 37° C. with 5% CO2. The cells were respectively cultured in a cell culture plate, and then removed with trypsin. The cells were seeded at 1×10^4 cells per well in a 96-well plate. After 24 hours, the peptide was added to the media, and culture was performed again at a condition of 37° C. with 5% CO2 for 24 hours. 10 uL of WST-1 reagent was added per well, and reaction was allowed to proceed for 30 minutes at a condition of 37° C. with 5% CO2. Then, UV absorbance was measured at 450/700 nm with a 96-well plate reader.

HeLa cells [2] = test: Cell-penetrating ability of fluorescently labeled dimeric peptides, flow cytometry; assay type: cell-based, human; details: for ratio of cell-penetrating ability to cytotoxicity (IC50^−1): at 62.5 nM, FIG. 6A
Experimental: During preparation of CPPs in dimeric form shown in Tables 1 to 3, one monomer thereof was prepared in a form where 5-TAMRA fluorescence was attached to the N-terminus, instead of acetyl. A monomer with acetyl and a monomer with 5-TAMRA fluorescence were mixed in a molar ratio of 1:1, and subjected to an oxidation condition in air to produce a dimeric form in which only one fluorescence was labeled per dimer molecule. Then, cell-penetrating ability of each dimer was identified. Each fluorescently labeled peptide was used to treat HeLa cells (5×10^4 cells/well), which are human-derived cells, and a ratio of the number of cells with fluorescence to the total number of cells was obtained through flow cytometry.
FIGS. 4B to 4D illustrate results obtained by treating cells with respective dimers at the same concentration (62.5 nM), measuring fluorescence intensity of the cells by flow cytometry, and relatively comparing the fluorescence intensity.
Based on cell-penetrating ability and cytotoxicity of the dimeric peptides of the present disclosure, correlation therebetween was identified. Cytotoxicity (IC50^−1) and cell-penetrating ability of the respective peptides were identified at 62.5 nM according to the methods described in Examples 5 and 6, and then graphically represented.

MDA-MB-231 cells = test: Cytotoxicity of MTX-bound peptide, WST-1 assay; assay type: cell-based
Experimental: as §1
In order to identify a drug delivery effect of a peptide, a peptide in which methotrexate (MTX) is bound to the N-terminus of one monomer of a dimer was synthesized according to a known method (Kim et al. Biomacromolecules 2016).
MDA-MB-231 cells were seeded in a 96-well plate at a density of 2.5×10^3 cells/well, and treated with the MTX-bound peptide for 48 hours starting from the next day.

Molecule	ratio (HeLa cells [1])	ratio of cell-penetrating ability to cytotoxicity (IC50^−1) (HeLa cells [2])	other results
CC(=O)N[C@@H](Cc1ccccc1)C(=O)N[C@H]1CSSC[C@@H](C(=O)N[C@@H](CCCNC(=N)N)C(N)=O)NC(=O)[C@H](Cc2ccccc2)NC(=O)[C@H](CCCNC(=N)N)NC(=O)[C@H](CCCNC(=N)N)NC(=O)[C@H](Cc2ccccc2)NC(=O)[C@H](Cc2ccccc2)NC(=O)[C@H](CCCNC(=N)N)NC(=O)[C@@H](NC(=O)[C@H](Cc2ccccc2)NC(C)=O)CSSC[C@@H](C(=O)N[C@@H](CCCNC(=N)N)C(N)=O)NC(=O)[C@H](Cc2ccccc2)NC(=O)[C@H](CCCNC(=N)N)NC(=O)[C@H](CCCNC(=N)N)NC(=O)[C@H](Cc2ccccc2)NC(=O)[C@H](Cc2ccccc2)NC(=O)[C@H](CCCNC(=N)N)NC1=O [diFR10] (HELM PEPTIDE1{[ac].F.C.R.F.F.R.R.F.C.R.[am]}|PEPTIDE2{[ac].F.C.R.F.F.R.R.F.C.R.[am]}$PEPTIDE1,PEPTIDE2,3:R3-10:R3|PEPTIDE1,PEPTIDE2,10:R3-3:R3$$$V2.0; bridges inferred)	4.10	low toxicity as compared with cell-penetrating ability	–
CC(=O)N[C@@H](CC(C)(C)C)C(=O)N[C@H]1CSSC[C@@H](C(=O)N[C@@H](CCCNC(=N)N)C(N)=O)NC(=O)[C@H](CC(C)(C)C)NC(=O)[C@H](CCCNC(=N)N)NC(=O)[C@H](CCCNC(=N)N)NC(=O)[C@H](CC(C)(C)C)NC(=O)[C@H](CC(C)(C)C)NC(=O)[C@H](CCCNC(=N)N)NC(=O)[C@@H](NC(=O)[C@H](CC(C)(C)C)NC(C)=O)CSSC[C@@H](C(=O)N[C@@H](CCCNC(=N)N)C(N)=O)NC(=O)[C@H](CC(C)(C)C)NC(=O)[C@H](CCCNC(=N)N)NC(=O)[C@H](CCCNC(=N)N)NC(=O)[C@H](CC(C)(C)C)NC(=O)[C@H](CC(C)(C)C)NC(=O)[C@H](CCCNC(=N)N)NC1=O [diNpgR10] (I: Ac-[tBuAla]CR[tBuAla][tBuAla]RR[tBuAla]CR-NH2 / II: Ac-[tBuAla]CR[tBuAla][tBuAla]RR[tBuAla]CR-NH2; disulfide I:2-II:9, I:9-II:2 (inferred))	–	low toxicity as compared with cell-penetrating ability	–
CC(=O)N[C@@H](CC(C)C)C(=O)N[C@H]1CSSC[C@@H](C(=O)N[C@@H](CCCCN)C(N)=O)NC(=O)[C@H](CC(C)C)NC(=O)[C@H](CCCCN)NC(=O)[C@H](CCCCN)NC(=O)[C@H](CC(C)C)NC(=O)[C@H](CC(C)C)NC(=O)[C@H](CCCCN)NC(=O)[C@@H](NC(=O)[C@H](CC(C)C)NC(C)=O)CSSC[C@@H](C(=O)N[C@@H](CCCCN)C(N)=O)NC(=O)[C@H](CC(C)C)NC(=O)[C@H](CCCCN)NC(=O)[C@H](CCCCN)NC(=O)[C@H](CC(C)C)NC(=O)[C@H](CC(C)C)NC(=O)[C@H](CCCCN)NC1=O [diLK10] (HELM PEPTIDE1{[ac].L.C.K.L.L.K.K.L.C.K.[am]}|PEPTIDE2{[ac].L.C.K.L.L.K.K.L.C.K.[am]}$PEPTIDE1,PEPTIDE2,3:R3-10:R3|PEPTIDE1,PEPTIDE2,10:R3-3:R3$$$V2.0)	2.79	–	pIC50 (MDA-MB-231 cells; 48 hours, MTX bound to N-terminus of one monomer of the dimer, MTX column = MTX alone, read-out: IC50 of MTX-bound peptide): 7.34; pIC50 (MDA-MB-231 cells; peptide itself, without MTX, read-out: IC50): ~4.86; pIC50 (HeLa cells [1]; HeLa cells, WST-1, peptide treatment 24 hours): 4.91
CC(=O)N[C@@H](CC(C)(C)C)C(=O)N[C@H]1CSSC[C@@H](C(=O)N[C@@H](CCCCN)C(N)=O)NC(=O)[C@H](CC(C)(C)C)NC(=O)[C@H](CCCCN)NC(=O)[C@H](CCCCN)NC(=O)[C@H](CC(C)(C)C)NC(=O)[C@H](CC(C)(C)C)NC(=O)[C@H](CCCCN)NC(=O)[C@@H](NC(=O)[C@H](CC(C)(C)C)NC(C)=O)CSSC[C@@H](C(=O)N[C@@H](CCCCN)C(N)=O)NC(=O)[C@H](CC(C)(C)C)NC(=O)[C@H](CCCCN)NC(=O)[C@H](CCCCN)NC(=O)[C@H](CC(C)(C)C)NC(=O)[C@H](CC(C)(C)C)NC(=O)[C@H](CCCCN)NC1=O [diNpgK10] (I: Ac-[tBuAla]CK[tBuAla][tBuAla]KK[tBuAla]CK-NH2 / II: Ac-[tBuAla]CK[tBuAla][tBuAla]KK[tBuAla]CK-NH2; disulfide I:2-II:9, I:9-II:2 (inferred))	–	low toxicity as compared with cell-penetrating ability	–
diLR10^C9Hcy: dimer of monomer LR10^C9Hcy, Ac-LCRLLRRLHcyR-NH2 (SEQ ID NO 43) (Ac-LCRLLRRL[hCys]R-NH2; also: dimer linked by intermolecular disulfides)	–	–	cell-penetrating ability (HeLa cells [2]; HeLa cells, flow cytometry, FIG. 4): best results
CC(=O)N[C@@H](CC(C)C)C(=O)N[C@@H](CCCCN)C(=O)N[C@@H](CCCCN)C(=O)N[C@@H](CC(C)C)C(=O)N[C@H]1CSSC[C@@H](C(=O)N[C@@H](CCCCN)C(=O)N[C@@H](CC(C)C)C(=O)N[C@@H](C)C(=O)NCC(N)=O)NC(=O)[C@H](CC(C)C)NC(=O)[C@H](CCCCN)NC(=O)[C@H](CCCCN)NC(=O)[C@H](CC(C)C)NC(=O)[C@H](CC(C)C)NC(=O)[C@H](CCCCN)NC(=O)[C@@H](NC(=O)[C@H](CC(C)C)NC(=O)[C@H](CCCCN)NC(=O)[C@H](CCCCN)NC(=O)[C@H](CC(C)C)NC(C)=O)CSSC[C@@H](C(=O)N[C@@H](CCCCN)C(=O)N[C@@H](CC(C)C)C(=O)N[C@@H](C)C(=O)NCC(N)=O)NC(=O)[C@H](CC(C)C)NC(=O)[C@H](CCCCN)NC(=O)[C@H](CCCCN)NC(=O)[C@H](CC(C)C)NC(=O)[C@H](CC(C)C)NC(=O)[C@H](CCCCN)NC1=O [LK-3, reference compound] (HELM PEPTIDE1{[ac].L.K.K.L.C.K.L.L.K.K.L.C.K.L.A.G.[am]}|PEPTIDE2{[ac].L.K.K.L.C.K.L.L.K.K.L.C.K.L.A.G.[am]}$PEPTIDE1,PEPTIDE2,6:R3-13:R3|PEPTIDE1,PEPTIDE2,13:R3-6:R3$$$V2.0; bridges inferred)	1.00	about 130,000	–
CC[C@H](C)[C@H](NC(C)=O)C(=O)N[C@H]1CSSC[C@@H](C(=O)N[C@@H](CCCNC(=N)N)C(N)=O)NC(=O)[C@H]([C@@H](C)CC)NC(=O)[C@H](CCCNC(=N)N)NC(=O)[C@H](CCCNC(=N)N)NC(=O)[C@H]([C@@H](C)CC)NC(=O)[C@H]([C@@H](C)CC)NC(=O)[C@H](CCCNC(=N)N)NC(=O)[C@@H](NC(=O)[C@@H](NC(C)=O)[C@@H](C)CC)CSSC[C@@H](C(=O)N[C@@H](CCCNC(=N)N)C(N)=O)NC(=O)[C@H]([C@@H](C)CC)NC(=O)[C@H](CCCNC(=N)N)NC(=O)[C@H](CCCNC(=N)N)NC(=O)[C@H]([C@@H](C)CC)NC(=O)[C@H]([C@@H](C)CC)NC(=O)[C@H](CCCNC(=N)N)NC1=O [diIR10] (HELM PEPTIDE1{[ac].I.C.R.I.I.R.R.I.C.R.[am]}|PEPTIDE2{[ac].I.C.R.I.I.R.R.I.C.R.[am]}$PEPTIDE1,PEPTIDE2,3:R3-10:R3|PEPTIDE1,PEPTIDE2,10:R3-3:R3$$$V2.0; bridges inferred)	3.24	low toxicity as compared with cell-penetrating ability	–
